The term IC50 denotes the concentration at which inhibition is half-maximal.

This passage reports IC50 and GI50 results from US20230027026A1, “FUSED PYRIMIDINE COMPOUNDS, COMPOSITIONS AND MEDICINAL APPLICATIONS THEREOF” (JUBILANT BIOSYS LIMITED, priority 2019, published 2023).

Counter-ions that a name gives are not always drawn. Like-named read-outs stand apart in the source and are kept apart here. Some results are limits rather than exact numbers.

Type in all cases: cell-based
The test system of assay [1] is A431 cells. Nature of the assay: Cellular proliferation (Alamar Blue) assay, A431. As to conditions: Homo sapiens. As to the method:
(§1) Example 3: Cellular Proliferation (Alamar Blue) Assays
(§2) • 1. EGFR(D770_N771insSVD) expressing Ba/F3 stable cell line • 2. EGFR (A767_dupASV) expressing Ba/F3 stable cell line • 3. A431 cells • 4. BTER2 (A775_G776insYVMA) expressing Ba/F3 stable cell line • 5. BTER2 (WT) expressing Ba/F3 stable cell line • 6. BT-474 cells
(§3) • 1. Seed cells at 5000 for A431 and 15,000 cells for Ba/F3 in 100 μL/well in complete media (for A431: DMEM with 10% FBS and for Ba/F3 cells: RPMI with 10% FBS) in 96-well tissue culture plate. Leave outer wells without cells for background measurements. Incubate at 37 degree Celsius in 5% CO2 humidified incubator for 16-18 hours. • 2. Add 0.025 ml of 5× concentration compound dilution or DMSO control. Final compound concentration range is 10-0.0005 μM prepared in 3-fold serial dilutions. Incubate for 72 hr at 37 degree Celsius in […] humidified incubator. • 3. Add 0.0125 mL Alamar Blue™ reagent to each well with multi-channel pipette and tap gently on each side of the plate to mix. Incubate for 3 hours at 37 degree Celsius in […] humidified incubator. • 4. Read plates on fluorescence reader (Tecan Spark Control, Device: Spark, Serial #: 1801006040) at 540 nm excitation, 590 nm emission wavelength. • 5. Data analysis was performed using XLfit 5.5.0.5.

In assay [2] the target is EGFR (A767_dupASV) expressing Ba/F3 stable cell line (Homo sapiens, UniProt P00533, DUP767-769, cells depend on it). In words: Cellular proliferation (Alamar Blue) assay, EGFR A767_dupASV Ba/F3. As to conditions: EGFR A767_dupASV Ba/F3, 72 hr, read-out: A767 IC50. As to the method: as §1, §2, §3
Assay [3] deals with EGFR(D770_N771insSVD) expressing Ba/F3 stable cell line (Homo sapiens, UniProt P00533, DUP768-770, cells depend on it). Nature of the assay: Cellular proliferation (Alamar Blue) assay, EGFR D770_N771insSVD Ba/F3. As to conditions: EGFR D770_N771insSVD Ba/F3, 72 hr, read-out: D770 IC50. As to the method: as §1, §2, §3
For orientation: Resazurin is reduced to fluorescent resorufin, in cell work by metabolically active cells.

Setting [4] is: A-431, A431 cells, 72 hr, Alamar Blue, read-out: A431 IC50.

Chain of EGFR (A767_dupASV) expressing Ba/F3 stable cell line (P00533 with tags, fused parts or gaps DUP767-769): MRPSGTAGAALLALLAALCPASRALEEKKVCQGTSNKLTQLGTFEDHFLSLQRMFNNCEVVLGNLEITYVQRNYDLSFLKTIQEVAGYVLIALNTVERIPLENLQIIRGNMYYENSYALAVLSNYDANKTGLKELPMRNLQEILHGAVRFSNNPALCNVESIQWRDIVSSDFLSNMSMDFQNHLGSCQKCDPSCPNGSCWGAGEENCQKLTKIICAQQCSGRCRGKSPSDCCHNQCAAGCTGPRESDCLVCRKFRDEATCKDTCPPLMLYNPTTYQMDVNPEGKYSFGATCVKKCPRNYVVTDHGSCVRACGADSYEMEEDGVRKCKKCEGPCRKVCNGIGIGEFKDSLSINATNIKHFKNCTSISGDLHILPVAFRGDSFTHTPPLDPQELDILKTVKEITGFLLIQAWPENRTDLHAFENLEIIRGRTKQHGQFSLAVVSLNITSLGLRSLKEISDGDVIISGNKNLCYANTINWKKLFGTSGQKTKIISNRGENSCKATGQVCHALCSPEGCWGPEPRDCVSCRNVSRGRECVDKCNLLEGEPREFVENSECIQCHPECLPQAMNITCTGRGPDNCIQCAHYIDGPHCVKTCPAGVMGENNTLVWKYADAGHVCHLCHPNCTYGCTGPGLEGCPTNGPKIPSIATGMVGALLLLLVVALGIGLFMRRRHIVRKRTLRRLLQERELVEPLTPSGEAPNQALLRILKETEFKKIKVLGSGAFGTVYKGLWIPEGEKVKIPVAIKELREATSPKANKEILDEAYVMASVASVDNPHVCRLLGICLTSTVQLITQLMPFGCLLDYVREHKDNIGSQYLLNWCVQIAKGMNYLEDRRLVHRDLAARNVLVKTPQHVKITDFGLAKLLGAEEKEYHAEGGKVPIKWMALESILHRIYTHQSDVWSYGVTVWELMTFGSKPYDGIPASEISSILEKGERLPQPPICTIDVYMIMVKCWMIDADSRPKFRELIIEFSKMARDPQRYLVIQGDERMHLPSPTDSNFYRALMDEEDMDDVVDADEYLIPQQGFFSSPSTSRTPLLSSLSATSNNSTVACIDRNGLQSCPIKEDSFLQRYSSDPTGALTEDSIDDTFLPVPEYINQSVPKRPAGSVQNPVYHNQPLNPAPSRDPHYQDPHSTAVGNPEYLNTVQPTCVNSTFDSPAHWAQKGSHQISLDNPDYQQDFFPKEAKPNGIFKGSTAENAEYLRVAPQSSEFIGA
Chain of EGFR(D770_N771insSVD) expressing Ba/F3 stable cell line (P00533 with tags, fused parts or gaps DUP768-770): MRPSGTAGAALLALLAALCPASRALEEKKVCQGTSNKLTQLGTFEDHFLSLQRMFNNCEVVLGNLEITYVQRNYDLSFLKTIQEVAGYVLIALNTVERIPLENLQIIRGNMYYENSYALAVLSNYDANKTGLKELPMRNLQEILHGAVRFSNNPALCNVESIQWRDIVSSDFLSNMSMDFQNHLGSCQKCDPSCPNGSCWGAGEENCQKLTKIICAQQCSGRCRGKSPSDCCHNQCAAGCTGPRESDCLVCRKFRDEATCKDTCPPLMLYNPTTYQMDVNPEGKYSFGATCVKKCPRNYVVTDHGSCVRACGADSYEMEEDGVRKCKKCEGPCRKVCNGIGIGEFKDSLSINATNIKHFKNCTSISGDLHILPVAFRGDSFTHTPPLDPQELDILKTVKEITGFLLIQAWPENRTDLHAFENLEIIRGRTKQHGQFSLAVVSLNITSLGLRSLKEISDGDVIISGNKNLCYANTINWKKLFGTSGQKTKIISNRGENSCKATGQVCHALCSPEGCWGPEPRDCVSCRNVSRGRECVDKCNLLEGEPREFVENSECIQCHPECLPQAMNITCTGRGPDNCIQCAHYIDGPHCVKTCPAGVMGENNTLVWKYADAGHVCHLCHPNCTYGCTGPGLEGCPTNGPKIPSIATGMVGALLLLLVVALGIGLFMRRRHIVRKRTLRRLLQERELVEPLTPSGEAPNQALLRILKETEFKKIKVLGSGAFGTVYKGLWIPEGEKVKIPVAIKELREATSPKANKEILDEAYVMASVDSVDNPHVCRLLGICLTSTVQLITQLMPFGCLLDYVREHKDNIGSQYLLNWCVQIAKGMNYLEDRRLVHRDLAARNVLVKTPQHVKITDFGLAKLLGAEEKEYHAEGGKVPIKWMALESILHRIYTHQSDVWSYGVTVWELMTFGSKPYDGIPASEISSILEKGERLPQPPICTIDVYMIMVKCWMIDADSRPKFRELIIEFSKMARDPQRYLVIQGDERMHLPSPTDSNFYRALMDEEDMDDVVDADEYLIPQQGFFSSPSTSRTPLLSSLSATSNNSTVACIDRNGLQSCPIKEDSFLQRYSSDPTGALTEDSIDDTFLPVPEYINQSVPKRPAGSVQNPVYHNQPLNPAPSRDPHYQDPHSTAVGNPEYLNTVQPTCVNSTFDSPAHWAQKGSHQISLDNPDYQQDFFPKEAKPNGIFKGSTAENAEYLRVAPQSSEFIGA

`COc1ncccc1Nc1ncc2c(n1)N(c1cccc(NC(=O)/C=C/CN(C)C)c1)C(=O)N(Cc1ccccc1)C2` [Compound 103, (E)-N-(3-(3-benzyl-7-((2-methoxypyridin-3-yl)amino)-2-oxo-3,4-dihydropyrimido[4,5-d]pyrimidin-1(2H)-yl)phenyl)-4-(dimethylamino)but-2-enamide trifluoroacetate salt]: in assay [1] (setting [4]), the IC50 is ≥ 10000 nM. In addition, the GI50 in assay [2] was found to be 269 nM; in assay [3] it was 224 nM.

`C=CC(=O)Nc1cc(N2C(=O)N(Cc3ccccc3)Cc3cnc(Nc4cn(C)nc4Cl)nc32)ccc1OC` [Compound 77, N-(5-(3-benzyl-7-((3-chloro-1-methyl-1H-pyrazol-4-yl)amino)-2-oxo-3,4-dihydropyrimido[4,5-d]pyrimidin-1(2H)-yl)-2-methoxyphenyl)acrylamide]: in assay [1] (setting [4]), the IC50 was ≥ 10000 nM. Further, the GI50 was ≥ 10000 nM in assay [2] and 9130 nM in assay [3].

`CN(C)C/C=C/C(=O)N(C)c1cccc(N2C(=O)N(Cc3ccccc3)Cc3cnc(Nc4cn(C)nc4Cl)nc32)c1` [Compound 63, (E)-N-(3-(3-benzyl-7-((3-chloro-1-methyl-1H-pyrazol-4-yl)amino)-2-oxo-3,4-dihydropyrimido[4,5-d]pyrimidin-1(2H)-yl)phenyl)-4-(dimethylamino)-N-methylbut-2-enamide]: in assay [1] (setting [4]), the IC50 was ≥ 10000 nM. In addition, the GI50 was found to be 532 nM in assay [2] and 1460 nM in assay [3].

As for `C/C=C/C(=O)Nc1cccc(N2C(=O)N(Cc3ccccc3)Cc3cnc(Nc4cn(C)nc4F)nc32)c1` [Compound 87, (E)-N-(3-(3-benzyl-7-((3-fluoro-1-methyl-1H-pyrazol-4-yl)amino)-2-oxo-3,4-dihydropyrimido[4,5-d]pyrimidin-1(2H)-yl)phenyl)but-2-enamide], in assay [1] (setting [4]), the IC50 is > 10000 nM. The GI50 in assay [2] was 2240 nM; in assay [3] it was 1980 nM.

Regarding `CN(C)C/C=C/C(=O)Nc1cccc(N2C(=O)N(Cc3ccccc3)Cc3cnc(Nc4cn(CC(F)F)nc4Cl)nc32)c1` [Compound 101, (E)-N-(3-(3-benzyl-7-((3-chloro-1-(2,2-difluoroethyl)-1H-pyrazol-4-yl)amino)-2-oxo-3,4-dihydropyrimido[4,5-d]pyrimidin-1(2H)-yl)phenyl)-4-(dimethylamino)but-2-enamide], in assay [1] (setting [4]), the IC50 was ≥ 10000 nM. Moreover, the figures for the GI50 in assay [2] and in assay [3] were 100 nM and 176 nM, respectively.

`C[C@@H](c1ccccc1)N1Cc2cnc(Nc3cnn(C)c3)nc2N(c2cccc(NC(=O)/C=C/CN(C)C)c2)C1=O` (single isomer, unassigned) [Compound 134]: the IC50 in assay [1] (A-431, 72 h, read-out: A431 IC50 (nM)) was ≥ 10000 nM. Moreover, the GI50 in assay [2] was 109 nM; in assay [3], 103 nM.

For `CN(C)C/C=C/C(=O)Nc1cccc(N2C(=O)N(Cc3ccccc3)Cc3cnc(Nc4ccc5c(ccn5C)c4)nc32)c1` [Compound 99, (E)-N-(3-(3-benzyl-7-((1-methyl-1H-indol-5-yl)amino)-2-oxo-3,4-dihydropyrimido[4,5-d]pyrimidin-1(2H)-yl)phenyl)-4-(dimethylamino)but-2-enamide], the IC50 in assay [1] (setting [4]) was ≥ 10000 nM. The GI50 in assay [2] was found to be 115 nM; in assay [3], 145 nM.

As for `C=CC(=O)Nc1ccccc1N1C(=O)N(c2ccccc2)Cc2cnc(Nc3cn(C)nc3Cl)nc21` [Compound 130, N-(2-(7-((3-chloro-1-methyl-1H-pyrazol-4-yl)amino)-2-oxo-3-phenyl-3,4-dihydropyrimido[4,5-d]pyrimidin-1(2H)-yl)phenyl)acrylamide], the IC50 in assay [1] (setting [4]) is ≥ 10000 nM. For the same compound, the GI50 in assay [2] was ≥ 10000 nM; in assay [3], 9260 nM.

On to `CN(C)C/C=C/C(=O)Nc1cccc(N2C(=O)N(Cc3ccccc3)Cc3cnc(Nc4cn(C)nc4C(F)(F)F)nc32)c1` [Compound 95, (E)-N-(3-(3-benzyl-7-((1-methyl-3-(trifluoromethyl)-1H-pyrazol-4-yl)amino)-2-oxo-3,4-dihydropyrimido[4,5-d]pyrimidin-1(2H)-yl)phenyl)-4-(dimethylamino)but-2-enamide], for which the IC50 in assay [1] (setting [4]) came out at 6500 nM. Further, the GI50 in assay [2] came out at 106 nM; in assay [3], 97 nM.

Take `CN(C)C/C=C/C(=O)Nc1cccc(N2C(=O)N(Cc3ccc(F)cc3)Cc3cnc(Nc4cn(C)nc4Cl)nc32)c1` [Compound 57, (E)-N-(3-(7-((3-chloro-1-methyl-1H-pyrazol-4-yl)amino)-3-(4-fluorobenzyl)-2-oxo-3,4-dihydropyrimido[4,5-d]pyrimidin-1(2H)-yl)phenyl)-4-(dimethylamino)but-2-enamide]: the IC50 in assay [1] (setting [4]) was ≥ 10000 nM. The GI50 in assay [2] amounted to 115 nM; in assay [3] it was 476 nM.

In the case of `C=C(OC)C(=O)Nc1cccc(N2C(=O)N(c3ccccc3)Cc3cnc(Nc4cn(C)nc4Cl)nc32)c1` [Compound 127, N-(3-(7-((3-chloro-1-methyl-1H-pyrazol-4-yl)amino)-2-oxo-3-phenyl-3,4-dihydropyrimido[4,5-d]pyrimidin-1(2H)-yl)phenyl)-2-methoxyacrylamide], in assay [1] (setting [4]), the half-maximal inhibitory concentration (IC50) turned out to be 8170 nM. Further, the GI50 in assay [2] and in assay [3] was ≥ 10000 nM each time.

Regarding `C=CC(=O)Nc1cccc(N2C(=O)N(c3ccccc3)Cc3cnc(Nc4cn(C5CCN(C)CC5)nc4Cl)nc32)c1` [Compound 105, N-(3-(7-((3-chloro-1-(1-methylpiperidin-4-yl)-1H-pyrazol-4-yl)amino)-2-oxo-3-phenyl-3,4-dihydropyrimido[4,5-d]pyrimidin-1(2H)-yl)phenyl)acrylamide], the IC50 in assay [1] (setting [4]) came to 3600 nM. Besides, the GI50 was determined as 12 nM in assay [2] and 14 nM in assay [3].

With `COc1cc(CN2Cc3cnc(Nc4cn(C)nc4Cl)nc3N(c3cccc(NC(=O)/C=C/CN(C)C)c3)C2=O)ccn1` [Compound 62, (E)-N-(3-(7-((3-chloro-1-methyl-1H-pyrazol-4-yl)amino)-3-((2-methoxypyridin-4-yl)methyl)-2-oxo-3,4-dihydropyrimido[4,5-d]pyrimidin-1(2H)-yl)phenyl)-4-(dimethylamino)but-2-enamide], in assay [1] (setting [4]), the IC50 was ≥ 10000 nM. Besides, the GI50 in assay [2] was 2260 nM; in assay [3], 5480 nM.

Regarding `CN(C)C/C=C/C(=O)Nc1cccc(N2C(=O)N(Cc3ccccc3)Cc3cnc(Nc4cnn5c4OCCC5)nc32)c1` [Compound 97, (E)-N-(3-(3-benzyl-7-((6,7-dihydro-5H-pyrazolo[5,1-b][1,3]oxazin-3-yl)amino)-2-oxo-3,4-dihydropyrimido[4,5-d]pyrimidin-1(2H)-yl)phenyl)-4-(dimethylamino)but-2-enamide], the IC50 in assay [1] (setting [4]) is ≥ 10000 nM. Further, the GI50 was determined as 2630 nM in assay [2] and 2540 nM in assay [3].

Regarding `C=CC(=O)Nc1cc(N2C(=O)N(Cc3ccccc3)Cc3cnc(Nc4cn(C)nc4Cl)nc32)ccc1OC(F)(F)F` [Compound 78, N-(5-(3-benzyl-7-((3-chloro-1-methyl-1H-pyrazol-4-yl)amino)-2-oxo-3,4-dihydropyrimido[4,5-d]pyrimidin-1(2H)-yl)-2-(trifluoromethoxy)phenyl)acrylamide], the IC50 in assay [1] (setting [4]) was 4180 nM. The GI50 is 8370 nM in assay [2] and 8780 nM in assay [3].

Regarding `C=CC(=O)Nc1cccc(N2C(=O)N(c3ccccc3)Cc3cnc(Nc4cn(C5CCNCC5)nc4Cl)nc32)c1` [Compound 132, N-[3-(7-{[3-chloro-1-(piperidin-4-yl)-1H-pyrazol-4-yl]amino}-2-oxo-3-phenyl-1H,2H,3H,4H-pyrimido[4,5-d][1,3]diazin-1-yl)phenyl]prop-2-enamide], in assay [1] (setting [4]), the IC50 was ≥ 10000 nM. For the same compound, the GI50 in assay [2] was found to be 960 nM; in assay [3], 973 nM.

As to `CN(C)C/C=C/C(=O)Nc1cccc(N2C(=O)N(Cc3ccc(F)cc3F)Cc3cnc(Nc4cn(C)nc4Cl)nc32)c1` [Compound 61, (E)-N-(3-(7-((3-chloro-1-methyl-1H-pyrazol-4-yl)amino)-3-(2,4-difluorobenzyl)-2-oxo-3,4-dihydropyrimido[4,5-d]pyrimidin-1(2H)-yl)phenyl)-4-(dimethylamino)but-2-enamide], the IC50 in assay [1] (setting [4]) is ≥ 10000 nM. Further, the GI50 in assay [2] was 58 nM; in assay [3], 105 nM.

On to `Cc1cn2cc(Nc3ncc4c(n3)N(c3cccc(NC(=O)/C=C/CN(C)C)c3)C(=O)N(Cc3ccccc3)C4)ccc2n1` [Compound 100, (E)-N-(3-(3-benzyl-7-((2-methylimidazo[1,2-a]pyridin-6-yl)amino)-2-oxo-3,4-dihydropyrimido[4,5-d]pyrimidin-1(2H)-yl)phenyl)-4-(dimethylamino)but-2-enamide], for which, in assay [1] (setting [4]), the IC50 is ≥ 10000 nM. For the same compound, the values for the GI50 in assay [2] and in assay [3] were 2970 nM and 4810 nM, respectively.
